Experimental data from patent US7863308B2, “Substituted thiophenes” (Auspex Pharmaceuticals, Inc., priority 2007, dated 2011).

Assays:
CYP3A4 = CYP3A4 (Homo sapiens, UniProt P08684); settings: 10 min, pH 7.4
Procedure: (§1) In Vitro Inhibition of Human Cytochrome P45 Enzymes
(§2) Solution A: NADPH-Regenerating System
(§3) To a glass tube on ice were added sequentially: Water (8 mL) in NADP+ (20 mg), glucose-6-phosphate (20 mg), magnesium chloride hexahydrate (13.3 mg) and glucose-6-phosphate dehydrogenase (60 units).
To a glass tube on ice were added sequentially: 0.5 M KH2PO4 (pH 7.4, 9.6 mL), water (2.328 mL), CYP3A4 (60 μL of 1 picomol/microliter), and dibenzylfluorescein (2 mM in 100% acetonitrile, 12 microliter).
Solution A was transferred to a 96-well black plate (80 microliter per well), followed by various concentrations of a solution of Compound in 20% acetonitrile-water (20 microliter per well). The reaction was initiated by adding 100 microliter of solution B to each well of the 96-well plate. The plate was incubated for 10 minutes at 37° C. in the dark. […] The end point was measured in a fluorometer plate reader at λex=485 nm and λem=538 nm.

CYP2C9 = CYP2C9 (Homo sapiens, UniProt P11712); assay: In vitro inhibition of human cytochrome P450 enzymes: CYP2C9 (dibenzylfluorescein fluorometric assay)
Sequence of CYP2C9 (P11712 whole entry): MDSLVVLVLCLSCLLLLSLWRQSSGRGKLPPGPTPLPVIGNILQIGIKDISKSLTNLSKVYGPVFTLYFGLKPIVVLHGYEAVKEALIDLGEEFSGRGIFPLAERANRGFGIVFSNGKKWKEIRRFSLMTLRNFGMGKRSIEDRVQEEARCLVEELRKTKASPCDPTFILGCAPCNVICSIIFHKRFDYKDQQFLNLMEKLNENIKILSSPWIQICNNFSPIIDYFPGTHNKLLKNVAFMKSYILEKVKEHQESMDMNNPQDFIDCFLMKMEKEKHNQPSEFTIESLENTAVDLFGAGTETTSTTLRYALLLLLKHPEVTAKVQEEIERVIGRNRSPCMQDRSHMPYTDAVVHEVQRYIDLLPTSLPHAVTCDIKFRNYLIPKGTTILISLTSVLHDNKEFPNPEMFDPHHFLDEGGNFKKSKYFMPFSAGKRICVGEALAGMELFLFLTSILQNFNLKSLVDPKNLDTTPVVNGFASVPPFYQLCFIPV
Procedure: as §1, §2, §3
To a glass tube on ice were added sequentially: 0.5 M KH2PO4 (pH 7.4, 2.4 mL), water (8.988 mL), CYP2C9 (600 μL of 1 picomol/microliter), and dibenzylfluorescein (2 mM in 100% acetonitrile, 12 microliter).
Solution A was transferred to a 96-well black plate (80 microliter per well), followed by various concentrations of a solution of Compound in 10% acetonitrile-water (20 microliter per well). The reaction was initiated by adding 100 microliter of solution B to each well of the 96-well plate. The plate was incubated for 40 minutes at 37° C. in the dark. The reaction was stopped by adding 75 microliters of stop buffer (2 N NaOH) to each well, and incubating at 37° C. for 2 hours. The end point was measured in a fluorometer plate reader at λex=485 nm and λem=538 nm.

Sequence of CYP3A4 (P08684 whole entry): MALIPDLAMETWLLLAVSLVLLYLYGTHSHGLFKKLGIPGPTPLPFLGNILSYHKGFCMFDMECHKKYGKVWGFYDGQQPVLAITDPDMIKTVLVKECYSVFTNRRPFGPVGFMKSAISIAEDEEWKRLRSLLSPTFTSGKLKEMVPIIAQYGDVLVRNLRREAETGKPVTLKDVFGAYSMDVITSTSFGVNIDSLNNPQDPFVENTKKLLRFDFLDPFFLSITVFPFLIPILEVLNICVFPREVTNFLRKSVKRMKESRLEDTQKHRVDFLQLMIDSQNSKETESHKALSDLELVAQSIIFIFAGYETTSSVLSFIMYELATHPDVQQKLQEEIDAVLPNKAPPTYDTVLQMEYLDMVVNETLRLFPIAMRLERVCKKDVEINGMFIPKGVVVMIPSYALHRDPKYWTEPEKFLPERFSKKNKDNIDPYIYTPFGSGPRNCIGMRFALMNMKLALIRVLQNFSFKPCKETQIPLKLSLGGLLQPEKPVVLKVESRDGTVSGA

| times the amount of deuterated compound to inhibit CYP3A4 as compared to the non-isotopically enriched drug (CYP3A4) [times] | IC50 (CYP2C9) [nM] | times the amount of deuterated compound to inhibit CYP2C9 as compared to the non-isotopically enriched drug (CYP2C9; human, 40 min, pH 7.4) [times] | Structure (SMILES) |
| --- | --- | --- | --- |
| 2.3 | 320 | 3.2 | [2H]C1([2H])Oc2cc(C)c(CC(=O)c3sccc3S(=O)(=O)Nc3onc(C)c3Cl)cc2O1 [Example 2, d2-2-[2-(6-Methyl-benzo[1,3]dioxol-5-yl)-acetyl]-thiophene-3-sulfonic acid (4-chloro-3-methyl-isoxazol-5-yl)-amide] |
| – | 100 | – | Cc1cc2c(cc1CC(=O)c1sccc1S(=O)(=O)Nc1onc(C)c1Cl)OCO2 [sixtaxsentan, 2-[2-(6-Methyl-benzo[1,3]dioxol-5-yl)-acetyl]-thiophene-3-sulfonic acid (4-chloro-3-methyl-isoxazol-5-yl)-amide, reference compound] |
